Literature values as cited in PMC12580772, “A First-in-Human Study of ATM Inhibitor Lartesertib as Monotherapy in Patients with Advanced Solid Tumors” (Clinical Cancer Research, 2025).

Test system: patient-derived xenograft models of triple-negative breast cancer
Design: method as in PMID 37079339
Conditions: single-agent gartisertib; cited from earlier work

Compound: Nc1nn2cc(F)cnc2c1C(=O)Nc1cncc(F)c1N1CCC(C(=O)N2CCN(C3COC3)CC2)CC1 [gartisertib, reference compound]
- Tumor control rate: 27%
